Tests used:
Experiment in all cases: biochemical
Set-up in all cases: KINOMEscan scanMAX active site-directed competition binding assay, percent of control, 468 kinases
Settings in all cases: competition binding, percent of control
LTK = LTK (Homo sapiens, UniProt P29376)
Procedure, shortened: (§1)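 KINOMEscan active site-directed competition binding assay against 468 human kinases with 100 μM S-carvone. Binding expressed as % of control, with 35% of control as the inhibition threshold.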

ERK8 = target: T1, ERK8 (Homo sapiens, UniProt Q8TD08)
T1 construct: gene MAPK15
T1 sequence (Q8TD08 whole entry): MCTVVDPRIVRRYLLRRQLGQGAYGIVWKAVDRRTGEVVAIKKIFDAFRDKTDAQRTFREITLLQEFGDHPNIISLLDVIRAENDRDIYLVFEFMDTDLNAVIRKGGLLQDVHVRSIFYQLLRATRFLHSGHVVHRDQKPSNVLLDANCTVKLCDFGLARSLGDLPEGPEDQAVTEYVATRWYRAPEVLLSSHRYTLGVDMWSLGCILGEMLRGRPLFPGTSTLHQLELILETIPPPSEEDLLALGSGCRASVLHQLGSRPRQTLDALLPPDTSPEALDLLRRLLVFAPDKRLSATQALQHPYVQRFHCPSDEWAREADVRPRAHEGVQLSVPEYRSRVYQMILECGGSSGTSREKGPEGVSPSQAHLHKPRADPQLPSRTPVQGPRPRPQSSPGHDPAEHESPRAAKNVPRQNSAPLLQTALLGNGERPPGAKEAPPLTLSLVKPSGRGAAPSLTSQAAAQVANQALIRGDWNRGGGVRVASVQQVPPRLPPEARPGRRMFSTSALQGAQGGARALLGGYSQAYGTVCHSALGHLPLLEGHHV
Procedure, shortened: as §1

TNK1 = TNK1 (Homo sapiens, UniProt Q13470)
Procedure, shortened: as §1

BMPR1A = BMPR1A (Homo sapiens, UniProt P36894)
Procedure, shortened: as §1

DDR1 = DDR1 (Homo sapiens, UniProt Q08345)
Procedure, shortened: as §1

CSNK2A1 = CSNK2A1 (Homo sapiens, UniProt P68400)
Procedure, shortened: as §1

ADCK4 = target: T2, ADCK4 (Homo sapiens, UniProt Q96D53)
T2 construct: gene COQ8B
Procedure, shortened: as §1

YANK2 = target: T3, YANK2 (Homo sapiens, UniProt Q9NY57)
T3 construct: gene STK32B
T3 sequence (Q9NY57 whole entry): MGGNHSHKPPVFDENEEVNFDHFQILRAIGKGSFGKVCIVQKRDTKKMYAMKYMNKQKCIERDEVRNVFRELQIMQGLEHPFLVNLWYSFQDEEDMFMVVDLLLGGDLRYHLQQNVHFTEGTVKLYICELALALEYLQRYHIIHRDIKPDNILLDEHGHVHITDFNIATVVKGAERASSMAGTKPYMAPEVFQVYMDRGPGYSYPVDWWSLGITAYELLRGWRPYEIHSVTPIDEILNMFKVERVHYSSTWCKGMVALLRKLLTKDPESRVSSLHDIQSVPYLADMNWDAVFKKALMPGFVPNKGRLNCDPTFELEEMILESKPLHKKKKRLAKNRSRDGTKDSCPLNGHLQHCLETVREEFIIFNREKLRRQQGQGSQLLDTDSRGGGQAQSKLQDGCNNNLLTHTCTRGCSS
Procedure, shortened: as §1

TYRO3 = TYRO3 (Homo sapiens, UniProt Q06418)
Chain of TYRO3 (Q06418 whole entry): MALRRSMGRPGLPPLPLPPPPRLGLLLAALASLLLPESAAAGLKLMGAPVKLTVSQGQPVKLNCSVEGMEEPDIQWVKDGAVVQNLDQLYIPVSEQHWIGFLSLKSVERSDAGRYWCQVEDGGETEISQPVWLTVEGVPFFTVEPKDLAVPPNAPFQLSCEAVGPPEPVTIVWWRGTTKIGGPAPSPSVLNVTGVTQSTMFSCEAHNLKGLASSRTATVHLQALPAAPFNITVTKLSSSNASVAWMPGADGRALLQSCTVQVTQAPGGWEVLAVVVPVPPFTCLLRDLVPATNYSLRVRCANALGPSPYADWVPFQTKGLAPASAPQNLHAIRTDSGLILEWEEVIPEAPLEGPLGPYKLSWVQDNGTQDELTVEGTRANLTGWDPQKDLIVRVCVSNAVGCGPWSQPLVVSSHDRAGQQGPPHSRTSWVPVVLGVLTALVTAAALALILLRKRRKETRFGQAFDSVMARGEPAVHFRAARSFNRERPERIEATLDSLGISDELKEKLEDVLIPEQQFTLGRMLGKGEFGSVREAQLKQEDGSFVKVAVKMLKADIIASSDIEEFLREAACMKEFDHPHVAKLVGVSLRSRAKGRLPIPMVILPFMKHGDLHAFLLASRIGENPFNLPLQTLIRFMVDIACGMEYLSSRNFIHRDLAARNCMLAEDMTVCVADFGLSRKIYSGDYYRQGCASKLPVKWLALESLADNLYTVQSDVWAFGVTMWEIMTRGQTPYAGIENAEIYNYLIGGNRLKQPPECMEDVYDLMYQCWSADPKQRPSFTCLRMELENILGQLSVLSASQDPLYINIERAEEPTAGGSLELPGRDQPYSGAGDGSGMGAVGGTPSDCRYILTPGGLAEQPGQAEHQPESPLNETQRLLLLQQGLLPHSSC
Procedure, shortened: as §1

FGFR2 = FGFR2 (Homo sapiens, UniProt P21802)
Procedure, shortened: as §1

MST2 = target: T4, MST2 (Homo sapiens, UniProt Q13188)
T4 construct: gene STK3
T4 sequence (Q13188 whole entry): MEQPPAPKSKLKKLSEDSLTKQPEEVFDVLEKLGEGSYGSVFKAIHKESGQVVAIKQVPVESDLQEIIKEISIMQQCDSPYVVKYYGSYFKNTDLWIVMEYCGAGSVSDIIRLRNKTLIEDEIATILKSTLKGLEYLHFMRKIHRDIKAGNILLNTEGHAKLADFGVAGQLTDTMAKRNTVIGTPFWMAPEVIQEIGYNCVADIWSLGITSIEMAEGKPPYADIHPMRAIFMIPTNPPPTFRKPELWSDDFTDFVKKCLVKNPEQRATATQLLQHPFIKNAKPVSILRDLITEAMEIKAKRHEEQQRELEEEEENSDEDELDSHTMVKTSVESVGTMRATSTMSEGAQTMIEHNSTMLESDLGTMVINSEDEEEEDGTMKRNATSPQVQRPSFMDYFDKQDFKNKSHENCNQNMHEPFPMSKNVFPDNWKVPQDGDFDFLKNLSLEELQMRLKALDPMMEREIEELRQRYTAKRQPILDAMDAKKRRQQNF
Procedure, shortened: as §1

GCN2(Kin.Dom.2,S808G) = target: T5, GCN2(Kin.Dom.2,S808G) (Homo sapiens, UniProt Q9P2K8, S808G)
T5 construct: gene EIF2AK4; Kin.Dom.2
Procedure, shortened: as §1

PIK3C2B = PIK3C2B (Homo sapiens, UniProt O00750)
Chain of PIK3C2B (O00750 whole entry): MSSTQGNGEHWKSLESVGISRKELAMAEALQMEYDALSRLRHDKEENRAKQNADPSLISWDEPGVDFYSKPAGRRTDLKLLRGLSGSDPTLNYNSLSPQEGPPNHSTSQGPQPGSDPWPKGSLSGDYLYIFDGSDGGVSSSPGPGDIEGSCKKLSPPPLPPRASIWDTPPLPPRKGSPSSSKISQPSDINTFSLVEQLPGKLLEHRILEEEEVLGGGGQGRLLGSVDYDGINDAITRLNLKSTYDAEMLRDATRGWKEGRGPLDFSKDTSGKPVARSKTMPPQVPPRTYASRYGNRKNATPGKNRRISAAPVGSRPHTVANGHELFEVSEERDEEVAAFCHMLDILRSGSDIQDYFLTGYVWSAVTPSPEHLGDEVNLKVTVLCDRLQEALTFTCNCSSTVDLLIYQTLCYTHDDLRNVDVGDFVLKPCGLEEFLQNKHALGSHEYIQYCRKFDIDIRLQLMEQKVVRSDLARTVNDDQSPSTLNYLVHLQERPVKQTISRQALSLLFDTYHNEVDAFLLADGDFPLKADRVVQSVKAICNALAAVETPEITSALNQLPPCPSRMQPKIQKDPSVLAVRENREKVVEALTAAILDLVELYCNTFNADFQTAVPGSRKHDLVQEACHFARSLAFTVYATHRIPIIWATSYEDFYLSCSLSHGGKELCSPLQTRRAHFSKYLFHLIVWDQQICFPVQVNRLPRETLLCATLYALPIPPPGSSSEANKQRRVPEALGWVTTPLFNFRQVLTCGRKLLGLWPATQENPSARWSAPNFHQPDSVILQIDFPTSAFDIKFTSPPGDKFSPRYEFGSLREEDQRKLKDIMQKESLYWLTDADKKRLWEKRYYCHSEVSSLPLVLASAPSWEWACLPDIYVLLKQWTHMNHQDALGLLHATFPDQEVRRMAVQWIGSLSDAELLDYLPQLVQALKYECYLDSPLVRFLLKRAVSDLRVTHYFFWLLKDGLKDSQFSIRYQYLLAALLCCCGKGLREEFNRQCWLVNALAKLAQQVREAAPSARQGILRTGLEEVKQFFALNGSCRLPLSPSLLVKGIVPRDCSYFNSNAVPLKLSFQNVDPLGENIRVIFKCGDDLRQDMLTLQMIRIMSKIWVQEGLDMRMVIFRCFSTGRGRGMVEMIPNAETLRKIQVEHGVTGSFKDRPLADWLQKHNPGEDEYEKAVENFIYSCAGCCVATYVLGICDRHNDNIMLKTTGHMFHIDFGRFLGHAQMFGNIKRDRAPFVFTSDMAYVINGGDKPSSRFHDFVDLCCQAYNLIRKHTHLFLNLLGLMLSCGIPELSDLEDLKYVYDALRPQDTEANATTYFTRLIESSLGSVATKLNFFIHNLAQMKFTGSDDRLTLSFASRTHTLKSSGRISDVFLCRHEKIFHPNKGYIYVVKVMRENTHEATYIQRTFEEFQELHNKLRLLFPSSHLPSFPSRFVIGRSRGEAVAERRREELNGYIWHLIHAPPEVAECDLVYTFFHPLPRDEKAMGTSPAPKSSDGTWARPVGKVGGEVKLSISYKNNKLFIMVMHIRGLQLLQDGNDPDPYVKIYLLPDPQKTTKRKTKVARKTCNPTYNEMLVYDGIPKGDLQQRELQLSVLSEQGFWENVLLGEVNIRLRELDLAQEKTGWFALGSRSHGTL
Procedure, shortened: as §1

RIPK5 = target: T6, RIPK5 (Homo sapiens, UniProt Q6XUX3)
T6 construct: gene DSTYK
T6 sequence (Q6XUX3 whole entry): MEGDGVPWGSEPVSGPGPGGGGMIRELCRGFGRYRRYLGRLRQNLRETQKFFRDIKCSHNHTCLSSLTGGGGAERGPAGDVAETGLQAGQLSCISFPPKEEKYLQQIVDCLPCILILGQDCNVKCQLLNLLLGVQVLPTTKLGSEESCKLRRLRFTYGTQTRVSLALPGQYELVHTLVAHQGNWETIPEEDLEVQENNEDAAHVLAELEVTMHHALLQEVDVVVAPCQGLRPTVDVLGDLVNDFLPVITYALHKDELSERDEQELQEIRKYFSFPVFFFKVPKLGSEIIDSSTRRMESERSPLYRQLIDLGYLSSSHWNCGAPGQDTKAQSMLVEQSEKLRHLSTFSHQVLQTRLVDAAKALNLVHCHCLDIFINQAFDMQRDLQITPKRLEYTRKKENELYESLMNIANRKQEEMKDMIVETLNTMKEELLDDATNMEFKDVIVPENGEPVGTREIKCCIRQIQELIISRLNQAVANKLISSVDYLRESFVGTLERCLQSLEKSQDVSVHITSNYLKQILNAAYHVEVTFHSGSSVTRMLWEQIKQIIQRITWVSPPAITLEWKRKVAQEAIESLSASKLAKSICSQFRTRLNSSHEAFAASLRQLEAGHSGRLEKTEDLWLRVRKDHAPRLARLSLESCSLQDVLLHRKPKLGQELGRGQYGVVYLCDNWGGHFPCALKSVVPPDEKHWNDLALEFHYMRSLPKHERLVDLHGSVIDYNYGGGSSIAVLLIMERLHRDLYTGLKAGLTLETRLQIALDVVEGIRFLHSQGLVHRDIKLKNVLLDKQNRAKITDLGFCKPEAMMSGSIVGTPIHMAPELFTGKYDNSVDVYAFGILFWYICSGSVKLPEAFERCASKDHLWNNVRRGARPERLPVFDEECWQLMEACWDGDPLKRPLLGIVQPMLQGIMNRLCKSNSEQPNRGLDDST
Procedure, shortened: as §1

[1] = target: T7, JAK2(JH1domain-catalytic) (Homo sapiens, UniProt O60674)
T7 construct: JH1domain-catalytic
Procedure, shortened: as §1

CAMK2D = CAMK2D (Homo sapiens, UniProt Q13557)
Procedure, shortened: as §1

FLT3(D835H) = FLT3(D835H) (Homo sapiens, UniProt P36888, D835H)
Procedure, shortened: as §1

BMX = BMX (Homo sapiens, UniProt P51813)
Procedure, shortened: as §1

AAK1 = AAK1 (Homo sapiens, UniProt Q2M2I8)
Procedure, shortened: as §1

MLK3 = target: T8, MLK3 (Homo sapiens, UniProt Q16584)
T8 construct: gene MAP3K11
Procedure, shortened: as §1

KIT(V559D) = KIT(V559D) (Homo sapiens, UniProt P10721, V559D)
Procedure, shortened: as §1

Work on `C=C(C)[C@H]1CC=C(C)C(=O)C1` [S-carvone] yielded a remaining binding at 100 µM (LTK) of 79%, a remaining binding at 100 µM (ERK8) of 91% and a remaining binding at 100 µM (TNK1) of 100%. The remaining binding at 100 µM (BMPR1A) was 92%, the remaining binding at 100 µM (DDR1) was 90% and the remaining binding at 100 µM (CSNK2A1) was 71%. It also gave a remaining binding at 100 µM (ADCK4) of 92%, a remaining binding at 100 µM (YANK2) of 79% and a remaining binding at 100 µM (TYRO3) of 87%. The remaining binding at 100 µM (FGFR2) was 80%, the remaining binding at 100 µM (MST2) was 65% and the remaining binding at 100 µM (GCN2(Kin.Dom.2,S808G)) was 63%. For the same compound, the remaining binding at 100 µM (PIK3C2B) was 72%, the remaining binding at 100 µM (RIPK5) was 61% and the remaining binding at 100 µM [1] was 78%. It also gave a remaining binding at 100 µM (CAMK2D) of 94%, a remaining binding at 100 µM (FLT3(D835H)) of 92% and a remaining binding at 100 µM (BMX) of 67%. It also gave a remaining binding at 100 µM (AAK1) of 77%, a remaining binding at 100 µM (MLK3) of 73% and a remaining binding at 100 µM (KIT(V559D)) of 89%.

Reference: PMC10174618, “Monoterpenoid aryl hydrocarbon receptor allosteric antagonists protect against ultraviolet skin damage in female mice” (Nature Communications, 2023)
